Results taken from patent US20190047966A1, “NOVEL COMPOUND AND PHARMACOLOGICALLY ACCEPTABLE SALT THEREOF” (MEIJI SEIKA PHARMA CO., LTD., priority 2016, published 2019).

Tests used:
[1] = target: T1, human histamine H4 receptor (Homo sapiens, UniProt Q9H3N8); assay: Evaluation of H4 Receptor Function ([35S]GTPγS binding); type: biochemical; settings: [35S]GTPγS binding, CHO-K1 membrane, 0.1 μM histamine; read-out: Evaluation of H4 Receptor Function (IC50 value, antagonistic effect)
T1 construct: purchased PerkinElmer Inc; host or cells: CHO-K1
T1 sequence (Q9H3N8 whole entry): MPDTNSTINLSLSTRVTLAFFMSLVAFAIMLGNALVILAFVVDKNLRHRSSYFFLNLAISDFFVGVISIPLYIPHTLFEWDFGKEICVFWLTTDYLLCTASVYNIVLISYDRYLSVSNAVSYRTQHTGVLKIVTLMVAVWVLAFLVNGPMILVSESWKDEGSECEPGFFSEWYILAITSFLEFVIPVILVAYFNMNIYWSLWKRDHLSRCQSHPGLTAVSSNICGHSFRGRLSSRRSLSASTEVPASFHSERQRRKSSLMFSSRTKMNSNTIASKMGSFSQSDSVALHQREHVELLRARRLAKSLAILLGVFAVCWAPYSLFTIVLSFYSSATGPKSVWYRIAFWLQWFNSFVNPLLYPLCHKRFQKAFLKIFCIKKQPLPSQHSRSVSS
Protocol: The antagonistic effect was evaluated by the method described below. Membrane preparation from recombinant CHO-K1 cell expressing the human histamine H4 receptor (PerkinElmer Inc.), 10 μM GDP, 0.1 μM histamine, and the compounds dissolved in DMSO were reacted at 30° C. for 20 minutes in a buffering solution containing 20 mM HEPES, pH 7.4, 100 mM NaCl, 10 mM MgCl2, 1 mM DTT, and 1 mM EDTA on an assay plate. Thereafter, SPA beads (Amersham plc) were added, followed by incubation for 60 minutes, and further 0.3 nM [^35S]GTPγS (PerkinElmer Inc.) was added, followed by incubation for 30 minutes.

[2] = target: T2, human histamine H1 receptor (Homo sapiens, UniProt P35367); assay: Evaluation of Human H1 Receptor Function (GeneBLAzer H1-NFAT-bla HEK 293T cells); type: cell-based; settings: histamine 30 nM, read-out: Evaluation of H1 Receptor Function (IC50 value, antagonistic effect)
T2 sequence (P35367 whole entry): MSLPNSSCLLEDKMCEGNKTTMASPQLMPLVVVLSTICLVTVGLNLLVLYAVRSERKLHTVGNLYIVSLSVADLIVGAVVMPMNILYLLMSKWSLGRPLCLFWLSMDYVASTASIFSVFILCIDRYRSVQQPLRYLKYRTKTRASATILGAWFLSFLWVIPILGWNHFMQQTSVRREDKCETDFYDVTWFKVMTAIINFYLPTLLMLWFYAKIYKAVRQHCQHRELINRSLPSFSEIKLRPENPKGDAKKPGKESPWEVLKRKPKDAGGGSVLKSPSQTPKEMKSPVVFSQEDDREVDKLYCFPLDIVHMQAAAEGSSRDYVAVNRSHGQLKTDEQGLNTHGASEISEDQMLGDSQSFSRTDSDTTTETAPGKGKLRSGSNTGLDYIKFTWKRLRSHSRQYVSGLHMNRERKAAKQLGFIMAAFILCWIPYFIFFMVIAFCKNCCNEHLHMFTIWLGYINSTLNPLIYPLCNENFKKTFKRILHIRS
Protocol: Test Example 3: Evaluation of Human H1 Receptor Function
The antagonistic effect was evaluated by the method described below. GeneBLAzer® H1-NFAT-bla HEK 293T-cells (Invitrogen Corporation, recombinant cells expressing the human histamine H1 receptor) were incubated at 37° C. for 30 minutes in the presence of the test compounds dissolved in DMSO in a high glucose Dulbecco's Modified Eagle Medium (GlutaMAX, containing 10% fetal bovine serum, 100 μM nonessential amino acids, 25 mM HEPES, 100 U/mL penicillin, and 100 μg/mL streptomycin), and histamine was added such that the final concentration became 30 nM, followed by further incubation for 4.5 hours. Then, a mixture of LiveBLAzer™ FRET-B/G Loading Kit (Invitrogen Corporation) and Solution D (Invitrogen Corporation) was added, followed by leaving to stand at room temperature for 2 hours under shaded conditions. Thereafter, the fluorescence intensity was measured under two conditions of 400 nm/460 nm and 400 nm/535 nm (excitation light/fluorescence) by using a multilabel counter (EnVision: PerkinElmer Inc.). The 50% inhibitory concentration (IC50 value) was calculated in accordance with (measured value−blank measured value at 400 nm/460 nm)/(measured value−blank measured value at 400 nm/535 nm) of each test sample.

[3] = target: T1, human histamine H4 receptor; assay: Evaluation of Human H4 Receptor Affinity ([3H]histamine binding); settings: inhibition constant Ki, CHO-K1 membrane preparation, read-out: Evaluation of H4 Receptor Affinity
In short: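 Radioligand displacement: compound competes with 8.2 nM [3H]histamine at recombinant human H4 receptor in CHO-K1 membranes (Tris-HCl 50 mM pH 7.4, EDTA 1.25 mM; 25 °C, 90 min), with filter-bound radioactivity counted. IC50 was converted to Ki via Cheng-Prusoff (Kd 5.7 nM); 1.0 μM histamine set nonspecific binding.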

[4] = target: T2, human histamine H1 receptor; assay: Evaluation of Human H1 Receptor Affinity ([3H]pyrilamine binding); design: purchased PerkinElmer Inc; host or cells: CHO-K1; settings: inhibition constant Ki, CHO-K1 membrane preparation
In short: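 Ki values are Cheng-Prusoff conversions of IC50 (Kd 1.1 nM) from radioligand displacement of 1.2 nM [3H]pyrilamine, with 1.0 μM pyrilamine defining nonspecific binding.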

CN1CCN(c2nc(N)nc3c2Cc2ccc(OCc4ccccc4)cc2-3)CC1 [Example 201, 8-(benzyloxy)-4-(4-methylpiperazin-1-yl)-5H-indeno[1,2-d]pyrimidin-2-amine]
IC50 [1]: < 200 nM | IC50 [2]: < 200 nM | Ki [3]: < 100 nM | Ki [4]: < 100 nM
